Reference: patent US20110065632A1, “PHARMACEUTICAL COMPOSITIONS OF SOMATOSTATIN-DOPAMINE CONJUGATES” (priority 2008, published 2011)
Where two headings read alike, the source gives them in different places. Numbered stars: 1 amine (or outer) side, 2 acyl side, 3 side chain; on linkers, the order of the positions; unused ones are H or OH. Bridge positions count the residues as written; N and C are the ends. Square brackets hold non-standard residues; d marks the D form. Peptide text beside a SMILES is read from it. * marks the point of attachment. X1 = CCCN1C[C@H](CSCC(=O)*)C[C@@H]2c3cccc4[nH]cc(c34)C[C@H]21; X2 = CN1C[C@H](CSCC(=O)*)C[C@@H]2c3cccc4[nH]cc(c34)C[C@H]21; Pipz(1-CH2CO,4-CH2CH2NH) = O=C(CN1CCN(CCN[*:1])CC1)[*:2]; Tyr(3-I) = N[C@@H](Cc1ccc(O)c(I)c1)C(=O)O; Dopa = N[C@@H](Cc1ccc(O)c(O)c1)C(=O)O; Abu = CC[C@H](N)C(=O)O; AEEA = NCCOCCOCC(=O)O

Legend:
hsst1 = biological target: T1, hsst1 (Homo sapiens, UniProt P30872); assay: Somatostatin receptor radioligand binding assay, hsst1; details: CHO-K1 membranes, [125I-Tyr11]SS-14; read-out: hsst1 Ki
T1 construct: expressed in transfected cells
T1 sequence (P30872 whole entry): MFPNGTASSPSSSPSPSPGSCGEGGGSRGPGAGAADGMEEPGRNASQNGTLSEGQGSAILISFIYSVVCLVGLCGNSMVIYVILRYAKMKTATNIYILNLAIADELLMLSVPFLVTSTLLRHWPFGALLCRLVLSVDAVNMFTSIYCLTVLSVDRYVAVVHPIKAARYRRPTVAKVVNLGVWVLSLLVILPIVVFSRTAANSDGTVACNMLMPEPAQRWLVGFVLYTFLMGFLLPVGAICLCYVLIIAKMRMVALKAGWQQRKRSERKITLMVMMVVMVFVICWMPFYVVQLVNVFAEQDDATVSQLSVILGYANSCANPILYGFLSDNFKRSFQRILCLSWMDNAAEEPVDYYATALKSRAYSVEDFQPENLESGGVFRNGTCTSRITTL
Protocol: (§1) Specificity and selectivity of the somatostatin analogues used to synthesize the somatostatin-dopamine chimers were determined by a radioligand binding assay on CHO-K1 cells stably transfected with each of the SSTR subtypes, as follows. Somatostatin analogs are also described in U.S. Patent Application Publication No. 02210006790. The complete coding sequences of genomic fragments of the SSTR 1 (e.g., Genbank accession No. M81829), SSTR 2 (e.g., Genbank accession No. M81830), SSTR 3 (e.g., Genbank accession No. L07062), and SSTR 4 (e.g., Genbank accession No. AL049651) genes and a cDNA clone for SSTR 5 (e.g., Genbank accession No. D16827) was subcloned into the mammalian expression vector pCMV (Life Technologies, Milano, Italy). Other SSTR sequences are known to the skilled artisan. Clonal cell lines stably expressing SSTR's 1-5 were obtained by transfection into CHO-K1 cells (ATCC, Manassas, Va., USA) using the calcium phosphate co-precipitation method (Davis L, et al., 1994 In: Basic methods in Molecular Biology, 2nd edition, Appleton & Lange, Norwalk, Conn., USA: 611-646). The plasmid pRSV-neo (ATCC) was included as a selectable marker. Clonal cell lines were selected in RPMI 1640 media containing 0.5 mg/mL of G418 (Life Technologies, Milano, Italy), ring cloned, and expanded into culture.
(§2) Membranes for in vitro receptor binding assays were obtained by homogenizing the CHO-K1 cells expressing the SSTR's subtypes in ice-cold 50 mM Tris-HCl and centrifuging twice at 39,000 g (10 min), with an intermediate resuspension in fresh buffer. The final pellets were resuspended in 10 mM Tris-HCl for assay.
(§3) For the SSTR 1, 3, 4, and 5 assays, aliquots of the membrane preparations were incubated 90 minutes at 25° C. with 0.05 nM [^125I-Tyr11]SS-14 in 50 mM HEPES (pH 7.4) containing 10 mg/mL BSA, 5 mM MgCl2, 200 KIU/mL Trasylol, 0.02 mg/mL bacitracin, and 0.02 mg/mL phenylmethylsuphonyl fluoride. The final assay volume was 0.3 mL.
(§4) For the SSTR 2 assay, 0.05 nM [^125I]MK-678 was employed as the radioligand and the incubation time was 90 minutes at 25° C. The incubations were terminated by rapid filtration through GF/C glass microfiber filters (Whatman Co.) (pre-soaked in 0.3% polyethylenimine) using a BRANDEL filtration manifold. Each tube and filter was washed three times with 5 mL aliquots of ice-cold buffer. Specific binding was defined as the total radioligand bound minus that bound in the presence of 1000 nM SS-14 for SSTR 1, 3, 4, and 5, or 1000 nM MK-678 for SSTR2.
(§5) Using the discussed assays, the inhibition constants (Ki) for the five human somatostatin receptors (hSSTR1-hSSTR5) and the dopamine-2 receptor (hUTII and hDA2) were measured for the exemplified somatostatin-dopamine conjugates, as follows: […]

hsst3 = biological target: T2, hsst3 (Homo sapiens, UniProt P32745); assay: Somatostatin receptor radioligand binding assay, hsst3
T2 construct: expressed in transfected cells
T2 sequence (P32745 whole entry): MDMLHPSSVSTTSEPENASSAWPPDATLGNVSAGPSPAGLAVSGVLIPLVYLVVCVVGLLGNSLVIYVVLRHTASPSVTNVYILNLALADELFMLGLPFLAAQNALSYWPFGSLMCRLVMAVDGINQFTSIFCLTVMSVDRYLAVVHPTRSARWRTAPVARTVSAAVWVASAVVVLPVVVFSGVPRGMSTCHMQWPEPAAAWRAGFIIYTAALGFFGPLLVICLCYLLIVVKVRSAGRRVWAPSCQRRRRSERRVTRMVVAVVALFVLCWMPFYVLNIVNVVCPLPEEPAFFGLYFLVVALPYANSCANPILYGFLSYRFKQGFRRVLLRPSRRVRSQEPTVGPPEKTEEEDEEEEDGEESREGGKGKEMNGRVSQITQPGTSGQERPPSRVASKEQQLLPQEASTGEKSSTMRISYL
Protocol: as §1, §2, §3, §4, §5

hsst5 = biological target: T3, hsst5 (Homo sapiens, UniProt P35346); assay: Somatostatin receptor radioligand binding assay, hsst5; details: CHO-K1 membranes, [125I-Tyr11]SS-14
T3 construct: expressed in transfected cells
T3 sequence (P35346 whole entry): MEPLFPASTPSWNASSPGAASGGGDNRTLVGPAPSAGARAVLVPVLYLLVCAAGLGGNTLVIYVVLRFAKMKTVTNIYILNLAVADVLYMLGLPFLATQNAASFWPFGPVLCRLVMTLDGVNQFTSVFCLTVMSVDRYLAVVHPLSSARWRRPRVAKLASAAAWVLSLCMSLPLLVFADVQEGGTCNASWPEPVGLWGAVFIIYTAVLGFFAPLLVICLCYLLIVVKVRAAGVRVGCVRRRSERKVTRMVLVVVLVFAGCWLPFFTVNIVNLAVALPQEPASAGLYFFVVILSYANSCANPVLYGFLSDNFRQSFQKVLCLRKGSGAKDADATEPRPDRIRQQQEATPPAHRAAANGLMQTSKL
Protocol: as §1, §2, §3, §4

hDA2 = assay: Dopamine-2 receptor radioligand binding assay; set-up: species or system human; details: [3H]spiperone
Protocol: Specificity and selectivity for the dopamine-2 receptor of the dopamine analogues used to synthesize the somatostatin-dopamine chimers may be determined by a radioligand binding assay as follows.
Crude membranes were prepared by homogenization of frozen rat corpus striatum (Zivic Laboratories, Pittsburgh, Pa., USA) in 20 mL of ice-cold 50 mM Tris-HCl with a Brinkman Polytron cell disrupter (setting 6, 15 sec). Buffer was added to obtain a final volume of 40 mL, and the homogenate was centrifuged in a Sorval SS-34 rotor at 39,000 g for 10 minutes at 0-4° C. The resulting supernatant was decanted and discarded. The pellet was rehomogenized in ice-cold buffer, pre-incubated at 37° C. for 10 min, diluted, and centrifuged as before. The final pellet was resuspended in buffer and held on ice for the receptor binding assay.
For assay, aliquots of the washed membrane preparations and test compounds were incubated for 15 minutes (37° C.) with 0.25 nM [^3HI]spiperone (16.5 Ci.mmol, New England Nuclear, Boston, Mass., USA) in 50 mM Tris HCl, 120 mM NaCl, 5 mM KCl, 2 mM CaCl2, 1 mM MgCl2. The final assay volume was 1.0 mL. The incubations were terminated by rapid filtration through GF/B glass fibre filters using a Brandel filtration manifold. Each tube and filter was then washed three times with 5-mL aliquots of ice-cold buffer. Specific binding was defined as the total radioligand bound minus that bound in the presence of 1000 nM (+) butaclamol.
as §5

hsst2 = biological target: T4, hsst2 (Homo sapiens, UniProt P30874); assay: Somatostatin receptor radioligand binding assay, hsst2; details: CHO-K1 membranes, [125I]MK-678; read-out: hsst2 Ki
T4 construct: expressed in transfected cells
T4 sequence (P30874 whole entry): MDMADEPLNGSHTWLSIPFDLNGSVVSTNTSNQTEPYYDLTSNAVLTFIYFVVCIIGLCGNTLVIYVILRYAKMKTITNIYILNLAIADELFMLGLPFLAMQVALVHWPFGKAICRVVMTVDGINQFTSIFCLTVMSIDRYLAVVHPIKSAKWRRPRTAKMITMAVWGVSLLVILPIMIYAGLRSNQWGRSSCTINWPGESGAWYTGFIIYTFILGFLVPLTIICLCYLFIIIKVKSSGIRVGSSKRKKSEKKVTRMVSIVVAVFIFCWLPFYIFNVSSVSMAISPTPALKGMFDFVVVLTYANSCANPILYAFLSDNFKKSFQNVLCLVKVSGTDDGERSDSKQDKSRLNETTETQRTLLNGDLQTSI
Protocol: as §1, §2, §4

hUTII = biological target: T5, hUTII (Homo sapiens, UniProt Q9UKP6); assay: hUTII inhibition constant; format: binding; details: read-out: hUTII Ki
T5 sequence (Q9UKP6 1-389): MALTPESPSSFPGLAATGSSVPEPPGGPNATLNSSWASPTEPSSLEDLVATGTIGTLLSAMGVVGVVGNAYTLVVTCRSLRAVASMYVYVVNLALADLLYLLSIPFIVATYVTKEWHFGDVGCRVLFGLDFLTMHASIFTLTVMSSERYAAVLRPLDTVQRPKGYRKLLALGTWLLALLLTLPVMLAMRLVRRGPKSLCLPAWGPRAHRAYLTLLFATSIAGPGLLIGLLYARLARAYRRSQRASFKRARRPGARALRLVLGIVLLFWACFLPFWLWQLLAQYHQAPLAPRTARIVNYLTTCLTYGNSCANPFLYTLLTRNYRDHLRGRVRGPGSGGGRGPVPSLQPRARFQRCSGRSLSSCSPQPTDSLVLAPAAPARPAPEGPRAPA
Protocol: as §5

[1] = CHO-K1 membranes, [125I-Tyr11]SS-14, read-out: hsst3 Ki

Row | Structure (SMILES) | Ki (hsst1) [nM] | Ki (hsst3; [1]) [nM] | Ki (hsst5; read-out: hsst5 Ki) [nM] | Ki (hDA2) [nM] | Ki (hsst2) [nM] | Ki (hUTII) [nM] | Ki (hsst3) [nM] | Ki (hsst5; hsst5 Ki) [nM]
1 | CCCN1C[C@H](CSCC(=O)N[C@H](Cc2ccccc2)C(=O)NCCOCCOCC(=O)N[C@H](Cc2ccccc2)C(=O)N[C@H]2CSSC[C@@H](C(=O)N[C@H](C(N)=O)[C@@H](C)O)NC(=O)[C@H](C(C)C)NC(=O)[C@H](CCCCN)NC(=O)[C@@H](Cc3c[nH]c4ccccc34)NC(=O)[C@H](Cc3ccc(O)c(I)c3)NC2=O)C[C@@H]2c3cccc4[nH]cc(c34)C[C@H]21 [Example 4] | 1000 | 397 | – | 29.6 | 0.84 | 83.7 | – | –
2 | CC[C@@H]1NC(=O)[C@H](CCCCN)NC(=O)[C@@H](Cc2c[nH]c3ccccc23)NC(=O)[C@H](Cc2ccc(O)cc2)NC(=O)[C@@H](NC(=O)[C@@H](Cc2ccc(O)cc2)NC(=O)[C@@H](Cc2ccc(O)cc2)NC(=O)[C@H](CCCCN)NC(=O)COCCOCCNC(=O)CSC[C@@H]2C[C@@H]3c4cccc5[nH]cc(c45)C[C@H]3N(C)C2)CSSC[C@@H](C(=O)N[C@H](C(N)=O)[C@@H](C)O)NC1=O [Example 34] ({X2-AEEA}-K[dY][dY]CY[dW]K[Abu]CT-NH2; disulfide 4-9) | – | – | – | 114 | 0.23 | 211 | 48.4 | 8.6
3 | CCCN1C[C@H](CSCC(=O)NCCN2CCN(CC(=O)N[C@H](Cc3ccccc3)C(=O)N[C@H]3CSSC[C@@H](C(=O)N[C@H](C(N)=O)[C@@H](C)O)NC(=O)[C@H](C(C)C)NC(=O)[C@H](CCCCN)NC(=O)[C@@H](Cc4c[nH]c5ccccc45)NC(=O)[C@H](Cc4ccc(O)c(I)c4)NC3=O)CC2)C[C@@H]2c3cccc4[nH]cc(c34)C[C@H]21 [Example 25] | 1000 | 423 | – | 345 | 1.09 | 233 | – | –
4 | CCCN1C[C@H](CSCC(=O)N[C@H](Cc2ccccc2)C(=O)N[C@H]2CSSC[C@@H](C(=O)N[C@H](C(N)=O)[C@@H](C)O)NC(=O)[C@H](C(C)C)NC(=O)[C@H](CCCCN)NC(=O)[C@@H](Cc3c[nH]c4ccccc34)NC(=O)[C@H](Cc3ccc(OC(=O)CSC[C@@H]4C[C@@H]5c6cccc7[nH]cc(c67)C[C@H]5N(CCC)C4)c(I)c3)NC2=O)C[C@@H]2c3cccc4[nH]cc(c34)C[C@H]21 [Example 3] | 1000 | 235 | – | 16.7 | 0.37 | 73.5 | – | –

Second part, led by results:

Row | Ki (hsst1) [nM] | Ki (hsst3; [1]) [nM] | Ki (hsst5; read-out: hsst5 Ki) [nM] | Ki (hDA2) [nM] | Ki (hsst2) [nM] | Ki (hUTII) [nM] | Structure (SMILES) | Ki (hsst3) [nM] | Ki (hsst5; hsst5 Ki) [nM]
5 | 907 | 196 | 10.7 | 15.2 | – | – | CCCN1C[C@H](CSCC(=O)NCCCC[C@@H](NC(=O)CSC[C@@H]2C[C@@H]3c4cccc5[nH]cc(c45)C[C@H]3N(CCC)C2)C(=O)N[C@H](Cc2ccccc2)C(=O)N[C@H]2CSSC[C@@H](C(=O)N[C@H](C(N)=O)[C@@H](C)O)NC(=O)[C@H]([C@@H](C)O)NC(=O)[C@H](CCCCN)NC(=O)[C@@H](Cc3c[nH]c4ccccc34)NC(=O)[C@H](Cc3ccc(O)c(I)c3)NC2=O)C[C@@H]2c3cccc4[nH]cc(c34)C[C@H]21 [Example 13] | – | –
6 | 731 | 135 | – | 34 | 0.4 | 53.2 | CCCN1C[C@H](CSCC(=O)N[C@H](Cc2ccccc2)C(=O)N[C@H]2CSSC[C@@H](C(=O)N[C@H](C(N)=O)[C@@H](C)O)NC(=O)[C@H](C(C)C)NC(=O)[C@H](CCCCN)NC(=O)[C@@H](Cc3c[nH]c4ccccc34)NC(=O)[C@H](Cc3ccc(O)c(I)c3)NC2=O)C[C@@H]2c3cccc4[nH]cc(c34)C[C@H]21 [Example 26] | – | –
7 | – | 76.4 | 7.43 | 8.56 | 0.16 | 549 | CCCN1C[C@H](CSCC(=O)NCCCC[C@@H](NC(=O)CSC[C@@H]2C[C@@H]3c4cccc5[nH]cc(c45)C[C@H]3N(CCC)C2)C(=O)N[C@H](Cc2ccc(O)cc2)C(=O)N[C@H](Cc2ccc(O)cc2)C(=O)N[C@H]2CSSC[C@@H](C(=O)N[C@H](C(N)=O)[C@@H](C)O)NC(=O)[C@H]([C@@H](C)O)NC(=O)[C@H](CCCCN)NC(=O)[C@@H](Cc3c[nH]c4ccccc34)NC(=O)[C@H](Cc3ccc(O)c(I)c3)NC2=O)C[C@@H]2c3cccc4[nH]cc(c34)C[C@H]21 [Example 16] (X1-[dK](X1)[dY][dY]C[Tyr(3-I)][dW]KTCT-NH2; disulfide 4-9) | – | –
8 | – | 167 | 32 | 3000 | 0.36 | 1000 | CC[C@@H]1NC(=O)[C@H](CCCCN)NC(=O)[C@@H](Cc2c[nH]c3ccccc23)NC(=O)[C@H](Cc2ccc(O)cc2)NC(=O)[C@@H](NC(=O)[C@@H](Cc2ccccc2)NC(=O)[C@H](CCCCNC(=O)[C@@H](N)Cc2ccc(O)c(O)c2)NC(=O)[C@@H](N)Cc2ccc(O)c(O)c2)CSSC[C@@H](C(=O)N[C@H](C(N)=O)[C@@H](C)O)NC1=O [Example 18] (H-[Dopa]K(Dopa)[dF]CY[dW]K[Abu]CT-NH2; disulfide 4-9) | – | –
9 | – | 109 | 13.6 | 55.8 | 0.27 | 134 | CCCN1C[C@H](CSCC(=O)N[C@@H](CCCCN)C(=O)N[C@H](Cc2ccc(O)cc2)C(=O)N[C@H](Cc2ccc(O)cc2)C(=O)N[C@H]2CSSC[C@@H](C(=O)N[C@H](C(N)=O)[C@@H](C)O)NC(=O)[C@H](CC)NC(=O)[C@H](CCCCN)NC(=O)[C@@H](Cc3c[nH]c4ccccc34)NC(=O)[C@H](Cc3ccc(O)cc3)NC2=O)C[C@@H]2c3cccc4[nH]cc(c34)C[C@H]21 [Example 35] (X1-K[dY][dY]CY[dW]K[Abu]CT-NH2; disulfide 4-9) | – | –
10 | – | 145 | 53.5 | 328 | 1.67 | 3090 | CCCN1C[C@H](CSCC(=O)NCCN2CCN(CC(=O)NCCN3CCN(CC(=O)N[C@H](Cc4ccccc4)C(=O)N[C@H]4CSSC[C@@H](C(=O)N[C@H](C(N)=O)[C@@H](C)O)NC(=O)[C@H](CC)NC(=O)[C@H](CCCCN)NC(=O)[C@@H](Cc5c[nH]c6ccccc56)NC(=O)[C@H](Cc5ccc(O)cc5)NC4=O)CC3)CC2)C[C@@H]2c3cccc4[nH]cc(c34)C[C@H]21 [Example 36] (X1-[Pipz(1-CH2CO,4-CH2CH2NH)][Pipz(1-CH2CO,4-CH2CH2NH)][dF]CY[dW]K[Abu]CT-NH2; disulfide 4-9) | – | –
